Laboratory results reported in PubChem BioAssay AID623876 (Vanderbilt Specialized Chemistry Center, 2012).
Values joined by “and” are separate entries in the source; they are usually repeats but may differ in a detail not shown here. Identical values can stand only once. Active and inactive are the calls of the source.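 Rule for the calls: active = mean EC50 dose giving half the maximal effect below 30 µM; inactive = mean EC50 of 30 µM or more.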

These compounds were tested against Metabotropic glutamate receptor 4 (Homo sapiens) (UniProt Q14833) (assay: mGlu4 positive allosteric modulators, SAR follow-up, human, CHO Gqi5 cells, calcium mobilization (AID 623876)). Conditions: CHO hmGlu4/Gqi5 calcium mobilization, PAM at EC20 glutamate.
Sequence of Metabotropic glutamate receptor 4 (Homo sapiens) (Q14833 whole entry, looked up): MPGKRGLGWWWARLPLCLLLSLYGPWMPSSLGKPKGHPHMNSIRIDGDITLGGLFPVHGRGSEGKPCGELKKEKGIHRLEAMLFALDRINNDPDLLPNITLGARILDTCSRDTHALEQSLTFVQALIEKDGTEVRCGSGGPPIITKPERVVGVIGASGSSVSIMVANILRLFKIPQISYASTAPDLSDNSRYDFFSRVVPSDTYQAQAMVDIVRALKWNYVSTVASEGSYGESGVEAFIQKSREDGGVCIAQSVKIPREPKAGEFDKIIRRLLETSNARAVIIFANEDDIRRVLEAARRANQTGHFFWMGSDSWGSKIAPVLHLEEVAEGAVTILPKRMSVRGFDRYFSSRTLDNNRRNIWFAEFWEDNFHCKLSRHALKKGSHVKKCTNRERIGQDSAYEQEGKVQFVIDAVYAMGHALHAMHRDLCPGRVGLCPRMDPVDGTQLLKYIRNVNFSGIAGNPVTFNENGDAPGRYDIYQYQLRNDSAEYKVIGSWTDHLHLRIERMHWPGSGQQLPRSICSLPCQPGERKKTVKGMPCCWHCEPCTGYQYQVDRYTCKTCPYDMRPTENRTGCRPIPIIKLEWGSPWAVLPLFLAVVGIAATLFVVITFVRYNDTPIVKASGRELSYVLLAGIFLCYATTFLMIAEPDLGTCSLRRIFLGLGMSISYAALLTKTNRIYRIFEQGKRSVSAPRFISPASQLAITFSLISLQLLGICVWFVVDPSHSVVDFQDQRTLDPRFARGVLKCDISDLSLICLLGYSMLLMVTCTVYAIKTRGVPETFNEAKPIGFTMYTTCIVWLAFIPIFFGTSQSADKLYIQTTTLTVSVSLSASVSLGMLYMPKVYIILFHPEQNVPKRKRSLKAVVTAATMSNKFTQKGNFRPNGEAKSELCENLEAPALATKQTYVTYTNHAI

Row | SMILES | EC50
1 | CC(C)N(C(=O)c1ccccn1)c1cccc(Cl)c1 | > 10 µM
2 | O=C(Nc1ccc2cc[nH]c2c1)c1ccccn1 | > 10 µM
3 | Clc1cccc(Nc2ccccn2)c1 | > 10 µM
4 | COc1cc(NC(=O)c2ccccc2F)ccc1Cl | > 10 µM
5 | COc1cc2nc(-c3ccccn3)[nH]c2cc1Cl | > 10 µM
6 | Clc1cccc(Nc2ncnc3cccnc23)c1 | 7.22 µM
7 | Fc1ccc2nc(-c3ccccn3)[nH]c2c1 | > 10 µM
8 | COc1cc(Nc2noc3cccnc23)ccc1Cl | 3.26 µM
9 | FC(F)Oc1cccc(Nc2noc3cccnc23)c1 | 0.36 µM and 0.44 µM
10 | Clc1cccc(Nc2noc3cccnc23)c1 | 0.47 µM and 0.3 µM and 0.25 µM
11 | O=C(c1cscn1)N1CCOc2ccc(Cl)cc21 | > 10 µM
12 | COc1cc2nc(-c3ncc[nH]3)[nH]c2cc1Cl | > 10 µM
13 | O=C(Nc1nc(C(F)(F)F)cs1)c1ccccn1 | > 10 µM
14 | Fc1cccc(Nc2noc3cccnc23)c1 | 1.19 µM
15 | Clc1ccc2nc(-c3ccccn3)[nH]c2c1 | 4.68 µM
16 | O=C(Nc1ccc2cn[nH]c2c1)c1ccccn1 | 1.37 µM
17 | O=C(Nc1ccc2c(c1)C(=O)NC2=O)c1ccccn1 | 3.82 µM
18 | Clc1cccc(Nc2coc3cccnc23)c1 | > 10 µM
19 | O=c1[nH]c(-c2ccccn2)nc2cc(Cl)ccc12 | > 10 µM
20 | Clc1cccc(Nc2nc3ccccc3o2)c1 | 0.6 µM
21 | O=C(Nc1cccc(Cl)c1)c1ccccn1 | 1.2 µM

Same assay, conditions: CHO hmGlu4/Gqi5 calcium mobilization, PAM at EC20 glutamate; stronger effect = higher value

Row | SMILES | % glutamate max response
22 | COc1cc(NC(=O)c2ccccc2C)ccc1Cl | inactive
23 | COc1cc(Nc2cccc3cccnc23)ccc1Cl | inactive
24 | COc1cc2nc(-c3cnccn3)[nH]c2cc1Cl | inactive
25 | Clc1cccc(Nc2cccc3cccnc23)c1 | inactive
26 | Fc1ccc(Nc2ncnc3cccnc23)cc1Cl | inactive
27 | O=C(c1cccs1)N1CCOc2ccc(Cl)cc21 | inactive
28 | O=C(NCCc1cccc(Cl)c1)c1ccccn1 | inactive
29 | CCN(C(=O)c1ccccn1)c1cccc(Cl)c1 | inactive
30 | COc1cc(NC(C)=O)ccc1Cl | inactive
31 | COc1cc(Nc2nccc3ccccc23)ccc1Cl | inactive
32 | O=C(c1cncs1)N1CCOc2ccc(Cl)cc21 | inactive
33 | Cn1ccc(NC(=O)c2ccccn2)n1 | inactive
34 | Cn1cnc(NC(=O)c2ccccn2)n1 | inactive
35 | Clc1cccc(Nc2nccc3cccnc23)c1 | inactive
36 | COc1cc(N2C(=O)c3cccnc3C2=O)ccc1Cl | inactive
37 | COc1cc(Nc2nccc3cccnc23)ccc1Cl | inactive
38 | COc1cc(N2C(=O)c3ccccc3C2=O)ccc1Cl | inactive
39 | COc1ccc(Nc2ncnc3cccnc23)cc1Cl | inactive
40 | COc1cc(Nc2ncn3ccccc23)ccc1Cl | inactive
41 | Cc1cc(Nc2ncnc3cccnc23)ccc1Cl | inactive
42 | O=C1c2cccnc2C(=O)N1c1cccc(Cl)c1 | inactive
43 | c1cnc2c(Nc3ccc4c(c3)OCO4)ncnc2c1 | inactive
44 | COc1cc(NC(=O)c2c(F)cccc2F)ccc1Cl | inactive
45 | COc1cc(NS(=O)(=O)c2ccccn2)ccc1Cl | inactive

Row | SMILES | % glutamate max response
46 | Cc1nsc(NC(=O)c2ccccn2)n1 | inactive
47 | O=C1COc2cc(NC(=O)c3ccccn3)ccc2N1 | inactive
48 | Fc1ccc(Nc2ncnc3cccnc23)cc1F | inactive
49 | c1ccc(Nc2coc3cccnc23)cc1 | inactive
50 | O=C(NCc1cccc(Cl)c1)c1ccccn1 | inactive
51 | Brc1cccc(-c2nc(-c3ccccn3)no2)c1 | inactive
52 | O=C(c1ccccn1)N1CCOc2ccc(Cl)cc21 | inactive
53 | Clc1cccc(-c2n[nH]c(-c3ccccn3)n2)c1 | inactive
54 | O=C(c1ccccn1)N(Cc1ccccn1)c1cccc(Cl)c1 | inactive
55 | Clc1cccc(Nc2nccc3ccccc23)c1 | inactive
56 | O=C(c1ccccn1)N1CCOc2c(Cl)cccc21 | inactive
57 | Clc1cccc(-c2nc(-c3ccccn3)no2)c1 | inactive
58 | Fc1cccc(Nc2ncnc3cccnc23)c1 | inactive
59 | COc1cc(Nc2nc3ccccc3o2)ccc1Cl | inactive
60 | O=C(c1cccc(Cl)n1)N1CCOc2ccc(Cl)cc21 | inactive
61 | COc1cc(OC)cc(-c2nc(-c3ccccn3)no2)c1 | inactive
62 | COc1cccc(C(=O)N2CCOc3ccc(Cl)cc32)n1 | inactive
63 | FC(F)(F)c1cccc(-c2nc(-c3ccccn3)no2)c1 | inactive
64 | c1ccc(Nc2ncnc3cccnc23)cc1 | inactive
65 | Cn1ccnc1NC(=O)c1ccccn1 | inactive
66 | O=C(c1ccco1)N1CCOc2ccc(Cl)cc21 | inactive
67 | COc1cc(N2Cc3ccccc3C2=O)ccc1Cl | inactive
68 | O=C(c1ccncn1)N1CCOc2ccc(Cl)cc21 | inactive
69 | Cc1nc(NC(=O)c2ccccn2)nn1C | inactive
